Test results: ChEMBL document CHEMBL3425465, “Synthesis, antimalarial and antitubercular activities of meridianin derivatives” (Eur J Med Chem, 2015); call rule not given here
pIC50: −log10 of the molar value. Converted amounts (≈) assume the structure as drawn.

Tests used:
[1] = Retention time of the compound by HPLC analysis; assay type: physicochemical
Plasmodium falciparum [2] = assay: Antiplasmodial activity against Plasmodium falciparum D6 infected in human RBC assessed as parasite growth inhibition measured as LDH activity after 72 hrs by plate reader analysis; assay type: functional, organism-based; conditions: for pIC50: read-out: IC50
Plasmodium falciparum [3] = assay: Antiplasmodial activity against Plasmodium falciparum W2 infected in human RBC assessed as parasite growth inhibition measured as LDH activity after 72 hrs by plate reader analysis; assay type: functional, organism-based; conditions: for pIC50: read-out: IC50
[4] = Selectivity index, ratio of IC50 for African green monkey VERO cells to IC50 for Plasmodium falciparum D6
[5] = Selectivity index, ratio of IC50 for pig LLC-PK1 cells to IC50 for Plasmodium falciparum D6
[6] = Selectivity index, ratio of IC50 for African green monkey VERO cells to IC50 for Plasmodium falciparum W2
[7] = Selectivity index, ratio of IC50 for pig LLC-PK1 cells to IC50 for Plasmodium falciparum W2
[8] = tested on: Mycobacterium tuberculosis; assay: Antitubercular activity against Mycobacterium tuberculosis H37Rv assessed as […] inhibition after 7 days by broth microdilution assay; assay type: functional; conditions: 168 h
Vero = assay: Cytotoxicity against African green monkey Vero cells assessed as cell growth inhibition after 48 hrs by neutral red assay; assay type: cell-based; conditions: Chlorocebus sabaeus
LLC-PK1 = assay: Cytotoxicity against pig LLC-PK1 cells assessed as cell growth inhibition after 48 hrs by neutral red assay; assay type: cell-based; conditions: Sus scrofa, LLC-PK1, 48 h
SK-MEL = assay: Cytotoxicity against human SK-MEL cells assessed as cell growth inhibition after 48 hrs by neutral red assay; assay type: cell-based
KB = assay: Cytotoxicity against human KB cells assessed as cell growth inhibition after 48 hrs by neutral red assay; assay type: cell-based
BT-549 = assay: Cytotoxicity against human BT549 cells assessed as cell growth inhibition after 48 hrs by neutral red assay; assay type: cell-based; conditions: BT-549, 48 h
SK-OV-3 = assay: Cytotoxicity against human SKOV3 cells assessed as cell growth inhibition after 48 hrs by neutral red assay; assay type: cell-based; conditions: SK-OV-3, 48 h
[9] = Plasmodium falciparum, D6, 72 h
[10] = Plasmodium falciparum, D6, 72 h, read-out: pIC50 (converted)
[11] = Plasmodium falciparum, W2, 72 h
[12] = Plasmodium falciparum, W2, 72 h, read-out: pIC50 (converted)

Compound | Retention_time [1] | IC50 (Plasmodium falciparum [2]) | IC50 (Plasmodium falciparum [3]) | Ratio IC50 [4] | Ratio IC50 [5] | Ratio IC50 [6] | Ratio IC50 [7] | MIC90 [8] | also measured
Cc1c(C)c(C)c(S(=O)(=O)n2cc(-c3ccnc(N)n3)c3ccccc32)c(C)c1C | 10 min | – | – | – | – | – | – | – | –
COc1ccc(S(=O)(=O)n2cc(-c3ccnc(N)n3)c3ccccc32)cc1 | 8.49 min | Not Active | Not Active | – | – | – | – | – | –
Nc1nccc(-c2cn(S(=O)(=O)c3ccc4ccccc4c3)c3ccccc23)n1 | 8.31 min | Not Active | Not Active | – | – | – | – | – | –
Nc1nccc(-c2c[nH]c3ccccc23)n1 | – | – | – | >12.3 | >11.1 | >26.8 | >24.1 | 305 µM (≈ 64.1 µg/mL) | –
CC(C)(C)c1ccc(S(=O)(=O)n2cc(-c3ccnc(N)n3)c3cc(Br)ccc32)cc1 | 13.2 min | – | – | >6.1 | >6.1 | >5.9 | >5.9 | – | pIC50 (Plasmodium falciparum [2]; [9]): 5.08; IC50 (Plasmodium falciparum [2]; [10]): 8.36 µM; pIC50 (Plasmodium falciparum [3]; [11]): 5.06; IC50 (Plasmodium falciparum [3]; [12]): 8.75 µM; pIC50 (Vero): < 4.29; pIC50 (LLC-PK1): < 4.29; pIC50 (SK-MEL): < 4.29; pIC50 (KB): < 4.29; pIC50 (BT-549): < 4.29; pIC50 (SK-OV-3): < 4.29
Nc1nccc(-c2cn(S(=O)(=O)c3ccc(C(F)(F)F)cc3)c3ccc(Br)cc23)n1 | 9.54 min | – | – | >5.6 | >5.6 | >5.3 | >5.3 | – | pIC50 (Plasmodium falciparum [2]; [9]): 5.05; IC50 (Plasmodium falciparum [2]; [10]): 8.91 µM; pIC50 (Plasmodium falciparum [3]; [11]): 5.03; IC50 (Plasmodium falciparum [3]; [12]): 9.42 µM; pIC50 (Vero): < 4.30; pIC50 (LLC-PK1): < 4.30; pIC50 (SK-MEL): < 4.30; pIC50 (KB): < 4.30; pIC50 (BT-549): < 4.30; pIC50 (SK-OV-3): < 4.30
COc1ccc(S(=O)(=O)n2cc(-c3ccnc(N)n3)c3ccccc32)cc1OC | 6.92 min | Not Active | Not Active | – | – | – | – | – | –
Nc1nccc(-c2c[nH]c3ccc(Br)cc23)n1 [MERIDIANIN C] | – | – | – | >6 | >6 | >7.4 | >7.4 | 111 µM (≈ 32.1 µg/mL) | –
Nc1nccc(-c2cn(C(=O)c3ccccc3)c3ccc(Br)cc23)n1 | – | – | – | – | – | – | – | 163 µM (≈ 64 µg/mL) | –
O=C1NC(c2c[nH]c3ccc(I)cc23)Nc2ccccc21 (stereo unspecified) | – | – | – | – | – | – | – | 5.2 µM (≈ 2.02 µg/mL) | –
Nc1nccc(-c2cn(S(=O)(=O)c3cccc(C(F)(F)F)c3)c3ccc(Br)cc23)n1 | 8.61 min | – | – | >5.4 | >5.4 | >9.4 | >9.4 | – | pIC50 (Plasmodium falciparum [2]; [9]): 5.03; IC50 (Plasmodium falciparum [2]; [10]): 9.29 µM; pIC50 (Plasmodium falciparum [3]; [11]): 5.27; IC50 (Plasmodium falciparum [3]; [12]): 5.35 µM; pIC50 (Vero): < 4.30; pIC50 (LLC-PK1): < 4.30; pIC50 (SK-MEL): < 4.30; pIC50 (KB): < 4.30; pIC50 (BT-549): < 4.30; pIC50 (SK-OV-3): < 4.30
Cc1ccsc1C(=O)n1cc(-c2ccnc(N)n2)c2ccccc21 | 8.48 min | – | – | – | – | – | – | 192 µM (≈ 64.1 µg/mL) | –
CN1CCN(C(=O)n2cc(-c3ccnc(N)n3)c3cc(Br)ccc32)CC1 | – | – | – | – | – | – | – | 155 µM (≈ 64.2 µg/mL) | –
Nc1nccc(-c2cn(S(=O)(=O)c3cc(C(F)(F)F)cc(C(F)(F)F)c3)c3ccc(Br)cc23)n1 | 10.48 min | Not Active | Not Active | – | – | – | – | – | –
Nc1nccc(-c2cn(S(=O)(=O)c3ccc([N+](=O)[O-])cc3)c3ccc(Br)cc23)n1 | 7.78 min | – | – | >10.8 | >10.8 | >8.2 | >8.2 | – | pIC50 (Plasmodium falciparum [2]; [9]): 5.31; IC50 (Plasmodium falciparum [2]; [10]): 4.86 µM; pIC50 (Plasmodium falciparum [3]; [11]): 5.19; IC50 (Plasmodium falciparum [3]; [12]): 6.38 µM; pIC50 (Vero): < 4.28; pIC50 (LLC-PK1): < 4.28; pIC50 (SK-MEL): < 4.28; pIC50 (KB): < 4.28; pIC50 (BT-549): < 4.28; pIC50 (SK-OV-3): < 4.28
CC(=O)Nc1ccc(S(=O)(=O)n2cc(-c3ccnc(N)n3)c3cc(Br)ccc32)cc1 | 6.95 min | – | – | >5.5 | >5.5 | >5.6 | >5.6 | – | pIC50 (Plasmodium falciparum [2]; [9]): 5.03; IC50 (Plasmodium falciparum [2]; [10]): 9.33 µM; pIC50 (Plasmodium falciparum [3]; [11]): 5.04; IC50 (Plasmodium falciparum [3]; [12]): 9.14 µM; pIC50 (Vero): < 4.29; pIC50 (LLC-PK1): < 4.29; pIC50 (SK-MEL): < 4.29; pIC50 (KB): < 4.29; pIC50 (BT-549): < 4.29; pIC50 (SK-OV-3): < 4.29
CO[C@H]1/C=C/O[C@@]2(C)Oc3c(C)c(O)c4c(O)c(c(/C=N/N5CCN(C)CC5)c(O)c4c3C2=O)NC(=O)/C(C)=C\C=C\[C@H](C)[C@H](O)[C@@H](C)[C@@H](O)[C@@H](C)[C@H](OC(C)=O)[C@@H]1C [RIFAMPIN] | – | – | – | – | – | – | – | 0.07 µM (≈ 0.0576 µg/mL) | –
Nc1nccc(-c2cn(S(=O)(=O)c3ccc(Br)cc3)c3ccccc23)n1 | 8.45 min | Not Active | Not Active | – | – | – | – | – | –
Cc1noc(C)c1Cn1cc(-c2ccnc(N)n2)c2ccccc21 | – | – | – | – | – | – | – | 201 µM (≈ 64.1 µg/mL) | –
Nc1nccc(-c2cn(S(=O)(=O)c3ccc(I)cc3)c3ccccc23)n1 | 8.8 min | Not Active | Not Active | – | – | – | – | – | –
